From US6573236B2, “Inhibiting MOG-antibody binding” (The Regents of the University of California, priority 1998, dated 2003)
Ends that are not written are not given here.

Key:
[1] = system: antigen-specific autoantibody in situ (marmoset EAE lesions); test: Immunogold-labeled peptide staining of marmoset EAE CNS tissue sections; assay type: binding, C. jacchus marmoset; conditions: conjugates 1:100, silver enhancement
Experimental: Immunogold labeling was performed on ultra-thin sections of frozen or fixed tissues. Gold conjugates were prepared of (1) three MOG peptides (amino acids [aa] 1-20, aa 21-40, and aa 41-60 of human MOG (SEQ ID NO:3)) with known encephalitogenic activity in marmosets; (2) one MOG peptide that has been shown not to be encephalitogenic in marmosets (aa 101-120); (3) one human myelin basic protein (MBP) peptide (aa 82-101) that is encephalitogenic in marmosets and immunodominant in humans with the DR2 haplotype; and, as a control, (4) a peptide of mouse serum albumin (MSA; aa 560-574). Peptides having human MOG subsequences were synthesized using standard Fmoc chemistry and purified (>95%) by HPLC (Research Genetics Inc., Huntsville, Ala.): MOG 1-20, MOG 21-40, […], MBP 82-101, and MSA 560-574. The gold conjugates were synthesized by using monosulfo-N-hydroxy succinimide-Nanogold labeling reagent (particle diameter, 1.4 nm), according to the manufacturer's instructions (Nanoprobes, Stonybrook, N.Y.), followed by extensive dialysis to remove unreacted peptide. Immunoreactivity was detected on 1-μm epoxy sections of marmoset spinal cord tissue and active MS lesions. For this, sections were etched with sodium ethoxide, equilibrated in PO4-buffered saline containing 0.05% Triton X-100, and blocked with 10% normal rabbit serum. Sections were incubated with peptide-immunogold conjugates (1:100 in buffer) for 2 hours at room temperature. After washing, detection was performed by using silver enhancement (Nanoprobes). Sections were counterstained with toluidine blue. […]
(§1) As controls, sections were either pretreated with unlabeled encephalitogenic MOG peptides or MBP to block the reaction, reacted with unlabeled nonencephalitogenic MOG peptide (aa 101-120) before application of the gold conjugates, or treated with gold-labeled irrelevant antigens (histone or MSA) or irrelevant IgG (anti-goat). The specificity of the labeling with the gold conjugates of encephalitogenic MOG peptides was also assessed in western blots where the MOG protein was first reacted with immune marmoset serum. […]

[2] = system: MOG- and MBP-specific autoantibodies in MS lesions; test: Immunogold-labeled peptide staining of human MS CNS tissue; assay type: binding; conditions: acute human MS lesions
Experimental: Immunogold labeling was performed on ultra-thin sections of frozen or fixed tissues. Gold conjugates were prepared of (1) three MOG peptides (amino acids [aa] 1-20, aa 21-40, and aa 41-60 of human MOG (SEQ ID NO:3)) with known encephalitogenic activity in marmosets; (2) one MOG peptide that has been shown not to be encephalitogenic in marmosets (aa 101-120); (3) one human myelin basic protein (MBP) peptide (aa 82-101) that is encephalitogenic in marmosets and immunodominant in humans with the DR2 haplotype; and, as a control, (4) a peptide of mouse serum albumin (MSA; aa 560-574). […] Immunoreactivity was detected on 1-μm epoxy sections of marmoset spinal cord tissue and active MS lesions. […]
as §1

gold-conjugated MOG peptide (aa 21-40): Nanogold conjugate of human MOG peptide aa 21-40 (ELPCRISPGKNATGMEVGWY; also: Nanogold conjugate, attachment not given here)
labeling of vesiculated myelin networks by gold conjugate [1]: Positive reactivity

MBP (aa 82-101): Nanogold conjugate of human myelin basic protein peptide aa 82-101 (PADPGSRPHLIRLFSRDAPG; also: Nanogold conjugate, attachment not given here)
labeling of vesiculated myelin networks by gold conjugate [1]: failed to label
staining of vesiculated myelin networks by gold conjugate [2]: to a lesser extent

MSA, aa 560-574: Nanogold conjugate of control peptide of mouse serum albumin aa 560-574 (KPKATAEQLKTVMDD; also: Nanogold conjugate, attachment not given here)
labeling of vesiculated myelin networks by gold conjugate [1]: failed to label
staining of vesiculated myelin networks by gold conjugate [2]: not
